# Results as given in ChEMBL document CHEMBL1152820, “Plasmid-encoded ACC-4, an extended-spectrum cephalosporinase variant from Escherichia coli” (Antimicrob Agents Chemother, 2007).
# Test system: Escherichia coli
# Assay: Antimicrobial activity against Escherichia coli MC4100 harboring pA-acc1 plasmid by agar dilution technique
# Type: functional
row,Compound,MIC [µg/mL]
1,CC(C)(O/N=C(\C(=O)N[C@@H]1C(=O)N2C(C(=O)[O-])=C(C[n+]3ccccc3)CS[C@H]12)c1csc(N)n1)C(=O)O [CEFTAZIDIME],32
2,CO/N=C(\C(=O)N[C@@H]1C(=O)N2C(C(=O)O)=C(CSc3nc(=O)c(O)nn3C)CS[C@H]12)c1csc(N)n1 [CEFTRIAXONE],16
3,CO/N=C(\C(=O)N[C@@H]1C(=O)N2C(C(=O)O)=C(COC(N)=O)CS[C@H]12)c1ccco1 [CEFUROXIME],128
4,CC(=O)OCC1=C(C(=O)O)N2C(=O)[C@@H](NC(=O)Cc3cccs3)[C@H]2SC1 [CEPHALOTHIN],> 512

# Test system: Escherichia coli
# Assay: Antimicrobial activity against Escherichia coli MC4100 harboring pACYC184 plasmid by agar dilution technique
# Type: functional
row,Compound,MIC [µg/mL]
1,CC(C)(O/N=C(\C(=O)N[C@@H]1C(=O)N2C(C(=O)[O-])=C(C[n+]3ccccc3)CS[C@H]12)c1csc(N)n1)C(=O)O [CEFTAZIDIME],0.25
2,CO/N=C(\C(=O)N[C@@H]1C(=O)N2C(C(=O)O)=C(CSc3nc(=O)c(O)nn3C)CS[C@H]12)c1csc(N)n1 [CEFTRIAXONE],0.12
3,CO/N=C(\C(=O)N[C@@H]1C(=O)N2C(C(=O)O)=C(COC(N)=O)CS[C@H]12)c1ccco1 [CEFUROXIME],1
4,CC(=O)OCC1=C(C(=O)O)N2C(=O)[C@@H](NC(=O)Cc3cccs3)[C@H]2SC1 [CEPHALOTHIN],2

# Test system: Hafnia alvei
# Assay: Activity of Hafnia alvei beta-lactamase ACC-1 assessed as nmol of compound hydrolysis per ug of protein
row,Compound,Vmax [nmol/min/µg]
1,CC(C)(O/N=C(\C(=O)N[C@@H]1C(=O)N2C(C(=O)[O-])=C(C[n+]3ccccc3)CS[C@H]12)c1csc(N)n1)C(=O)O [CEFTAZIDIME],< 0.025

# Test system: Hafnia alvei
# Assay: Activity of Hafnia alvei beta-lactamase ACC-1
row,Compound,Km [µM]
1,CC(C)(O/N=C(\C(=O)N[C@@H]1C(=O)N2C(C(=O)[O-])=C(C[n+]3ccccc3)CS[C@H]12)c1csc(N)n1)C(=O)O [CEFTAZIDIME],17

# Test system: Escherichia coli
# Assay: Antimicrobial activity against Escherichia coli MC4100 harboring pBCSK plasmid by agar dilution technique
# Type: functional
row,Compound,MIC [µg/mL]
1,CC(C)(O/N=C(\C(=O)N[C@@H]1C(=O)N2C(C(=O)[O-])=C(C[n+]3ccccc3)CS[C@H]12)c1csc(N)n1)C(=O)O [CEFTAZIDIME],0.25
2,CO/N=C(\C(=O)N[C@@H]1C(=O)N2C(C(=O)O)=C(CSc3nc(=O)c(O)nn3C)CS[C@H]12)c1csc(N)n1 [CEFTRIAXONE],0.12
3,CO/N=C(\C(=O)N[C@@H]1C(=O)N2C(C(=O)O)=C(COC(N)=O)CS[C@H]12)c1ccco1 [CEFUROXIME],1
4,CC(=O)OCC1=C(C(=O)O)N2C(=O)[C@@H](NC(=O)Cc3cccs3)[C@H]2SC1 [CEPHALOTHIN],2

# Test system: Escherichia coli
# Assay: Antimicrobial activity against Escherichia coli MC4100 harboring pB-acc4 plasmid by agar dilution technique
# Type: functional
row,Compound,MIC [µg/mL]
1,CC(C)(O/N=C(\C(=O)N[C@@H]1C(=O)N2C(C(=O)[O-])=C(C[n+]3ccccc3)CS[C@H]12)c1csc(N)n1)C(=O)O [CEFTAZIDIME],512
2,CO/N=C(\C(=O)N[C@@H]1C(=O)N2C(C(=O)O)=C(CSc3nc(=O)c(O)nn3C)CS[C@H]12)c1csc(N)n1 [CEFTRIAXONE],128
3,CO/N=C(\C(=O)N[C@@H]1C(=O)N2C(C(=O)O)=C(COC(N)=O)CS[C@H]12)c1ccco1 [CEFUROXIME],> 512
4,CC(=O)OCC1=C(C(=O)O)N2C(=O)[C@@H](NC(=O)Cc3cccs3)[C@H]2SC1 [CEPHALOTHIN],> 512

# Test system: Hafnia alvei
# Assay: Ratio of Vmax to Km for Hafnia alvei beta-lactamase ACC-1
row,Compound,Vmax/Km
1,CC(C)(O/N=C(\C(=O)N[C@@H]1C(=O)N2C(C(=O)[O-])=C(C[n+]3ccccc3)CS[C@H]12)c1csc(N)n1)C(=O)O [CEFTAZIDIME],< 0.01

# Test system: Escherichia coli
# Assay: Antimicrobial activity against Escherichia coli MC4100 harboring pB-acc1 plasmid by agar dilution technique
# Type: functional
row,Compound,MIC [µg/mL]
1,CC(C)(O/N=C(\C(=O)N[C@@H]1C(=O)N2C(C(=O)[O-])=C(C[n+]3ccccc3)CS[C@H]12)c1csc(N)n1)C(=O)O [CEFTAZIDIME],128
2,CO/N=C(\C(=O)N[C@@H]1C(=O)N2C(C(=O)O)=C(CSc3nc(=O)c(O)nn3C)CS[C@H]12)c1csc(N)n1 [CEFTRIAXONE],32
3,CO/N=C(\C(=O)N[C@@H]1C(=O)N2C(C(=O)O)=C(COC(N)=O)CS[C@H]12)c1ccco1 [CEFUROXIME],128
4,CC(=O)OCC1=C(C(=O)O)N2C(=O)[C@@H](NC(=O)Cc3cccs3)[C@H]2SC1 [CEPHALOTHIN],> 512

# Test system: Escherichia coli
# Assay: Antimicrobial activity against Escherichia coli MC4100 harboring pA-acc4 plasmid by agar dilution technique
# Type: functional
row,Compound,MIC [µg/mL]
1,CC(C)(O/N=C(\C(=O)N[C@@H]1C(=O)N2C(C(=O)[O-])=C(C[n+]3ccccc3)CS[C@H]12)c1csc(N)n1)C(=O)O [CEFTAZIDIME],256
2,CO/N=C(\C(=O)N[C@@H]1C(=O)N2C(C(=O)O)=C(CSc3nc(=O)c(O)nn3C)CS[C@H]12)c1csc(N)n1 [CEFTRIAXONE],32
3,CO/N=C(\C(=O)N[C@@H]1C(=O)N2C(C(=O)O)=C(COC(N)=O)CS[C@H]12)c1ccco1 [CEFUROXIME],> 512
4,CC(=O)OCC1=C(C(=O)O)N2C(=O)[C@@H](NC(=O)Cc3cccs3)[C@H]2SC1 [CEPHALOTHIN],> 512
